Our source for the Km values is paper PMC8290022, “Electrophysiological characterization of a diverse group of sugar transporters from Trichoderma reesei” (Scientific Reports, 2021).

For the assay, the target named is T1, STR3 (Trire2_62380) (Trichoderma reesei, UniProt G0RKF0).
T1 construct: gene TRIREDRAFT_62380
The experiment in a line: two-electrode voltage clamp in Xenopus oocytes, transport current. It is filed as cell-based. Particulars: pH 5.5, -50 mV, H+ symport. A general note: Two-electrode voltage clamp is typically applied to oocytes expressing channels or transporters.

T1 sequence (G0RKF0 entry or part of it): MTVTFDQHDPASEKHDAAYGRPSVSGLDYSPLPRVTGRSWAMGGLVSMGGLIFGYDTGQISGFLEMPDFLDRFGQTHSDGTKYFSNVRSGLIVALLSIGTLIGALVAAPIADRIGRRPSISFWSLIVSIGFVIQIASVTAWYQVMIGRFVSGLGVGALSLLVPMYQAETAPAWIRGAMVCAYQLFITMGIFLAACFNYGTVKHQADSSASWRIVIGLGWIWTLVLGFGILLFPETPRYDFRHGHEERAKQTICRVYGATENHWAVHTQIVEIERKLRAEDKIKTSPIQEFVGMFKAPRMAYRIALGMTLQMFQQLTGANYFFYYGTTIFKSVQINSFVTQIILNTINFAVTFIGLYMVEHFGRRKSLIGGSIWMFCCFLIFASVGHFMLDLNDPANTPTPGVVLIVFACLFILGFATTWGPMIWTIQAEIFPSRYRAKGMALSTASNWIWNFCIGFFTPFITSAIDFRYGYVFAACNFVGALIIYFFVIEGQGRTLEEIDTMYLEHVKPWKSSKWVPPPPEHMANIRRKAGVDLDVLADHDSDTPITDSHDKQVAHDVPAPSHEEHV

The term Km denotes the concentration of substrate that gives half-maximal velocity. As for `OC[C@H]1OC(O)[C@@H](O)[C@@H](O)[C@@H]1O` (stereo partly drawn) [D-mannose], the Km is 186 ± 18.9 µM.
Under `OC[C@H]1OC(O)[C@H](O)[C@@H](O)[C@@H]1O` (stereo partly drawn) [D-glucose] stands 57.9 ± 17.7 µM.
Under `OC[C@H]1OC(O)[C@H](O)[C@@H](O)[C@H]1O` (stereo partly drawn) [D-galactose] stands 1110 ± 490 µM.
